Data from PMC10153383, “Pharmacophore Variants of the Macrocyclic Peptide Triazole Inactivator of HIV-1 Env” (Research Square, 2023).
*1 amine or outer side, *2 acyl side, *3 side chain or, on linkers, in order; H or OH if unused. Where a SMILES comes first, the peptide text is derived from it. Bridges are numbered along the chain shown (N, C = ends). [ ]: non-standard residue; d: D form. X1 = O=C([C@@H]1C[C@H](n2cc(-c3ccc(-c4cccs4)cc3)nn2)CN1[*:1])[*:2]; Trp(5-Br) = N[C@@H](Cc1c[nH]c2ccc(Br)cc12)C(=O)O; Trp(1-Me) = Cn1cc(C[C@H](N)C(=O)O)c2ccccc21

Molecular target: T1, YU2 gp120 (Human immunodeficiency virus type 1 group M subtype B, UniProt P35961)
T1 construct: The DNA for gp120YU-2 in pcDNA3.1 vector for transient transfection; made in house; host or cells: HEK-293F
Format: binding, HIV-1
From the text: A state-of-the-art Biacore S200 SPR optical biosensor, which can resolve dissociation rates of 0.1–1.0 s^−1, was employed to measure the YU2 gp120 binding kinetics of cPT’s. […] The insets in Fig. 3 show the binding isotherms plotted from the binding signals at steady state, as a function of peptide concentration. Reproducibility of the SPR binding assays was verified by running experiments at gp120 densities ranging from 10 to 29 RU/kDa. […] The calculated apparent (KD), the steady state affinities (eq KD) and experimental Rmax or maximum binding capacities for each gp120 surface are reported.
SPR experiments were performed on a Biacore S200 biosensor (Cytiva Global Life Sciences Solutions) at 25°C using PBS-P (10 mM Phosphate, 150 mM NaCl, pH 7.4, 0.005% P-20 and 2 or 5%DMSO) as the running and sample buffers. […] The 9 to 10 cPT concentrations were injected in duplicate spanning 1000-fold (~ 0.001 to 2.0 μM) at a flow rate of 75–100 μL/min where associations were monitored for 3 minutes and the final dissociation phase in running buffer monitored for 5 minutes for complete dissociation or by injecting two 9-second pulses of 10 mM glycine pH 2.0 to remove any bound analyte. […]

SMILES	increase in dissociation rate relative to parent peptide (SPR, MG-I-13 vs AAR029N2, MG-II-55 vs MG-II-20) [fold]	equilibrium binding isotherm KD, fold lower (affinity) versus AAR029N2 (SPR steady state isotherm, Fig. 3C inset) [fold]
CC[C@H](C)[C@@H]1NC(=O)[C@H](CC(N)=O)NC(=O)[C@@H](N)CC(=O)NCCCC[C@@H](C(N)=O)NC(=O)[C@H](Cc2c[nH]c3ccc(Br)cc23)NC(=O)[C@@H]2C[C@H](n3cc(-c4ccc(-c5cccs5)cc4)nn3)CN2C1=O [MG-I-13] (H-DNI[X1][Trp(5-Br)]K-NH2; lactam 1-6; N-terminus and C-terminus assumed)	2.5	
CC[C@H](C)[C@@H]1NC(=O)[C@H](CC(N)=O)NC(=O)[C@@H](N)CC(=O)NCCCC[C@@H](C(N)=O)NC(=O)[C@H](Cc2cn(C)c3ccccc23)NC(=O)[C@@H]2C[C@H](n3cc(-c4ccc(-c5cccs5)cc4)nn3)CN2C1=O [MG-II-39] (H-DNI[X1][Trp(1-Me)]K-NH2; lactam 1-6; N-terminus and C-terminus assumed)		5
